Measurements published in patent publication US20020132853A1, “Capsaicin receptor ligands” (priority 2000, published 2002).
Where two headings read alike, the source gives them in different places.

Molecular target: T1, human capsaicin receptor (Homo sapiens, UniProt Q8NER1)
T1 construct: expression consrtuct encoding the full length human capsaicin receptor; expressed in transfected cells
Assay: Antagonist assay for Capsaicin receptor mediated calcium mobilization
Assay type: cell-based
Conditions: read-out: EC50 (the source's name)
Experimental: Calcium Mobilization Assay
Cells transfected with expression plasmids (as described in Example 10) and thereby expressing the human capsaicin receptor are seeded and grown to 70-90% confluency in FALCON black-walled, clear-bottomed 96-well plates (#3904, BECTON-DICKINSON, Franklin Lakes, N.J.) . The culture media are emptied from the 96 well plates and FLUO-3 AM calcium sensitive dye (Molecular Probes, Eugene, OR) is added to each well (dye solution: 1 mg FLUO-3 AM, 440 uL DMSO and 440 ul 20% pluronic acid in DMSO, diluted 1:4, 50 ul diluted solution per well). Plates are covered with aluminum foil and incubated at 37° C for 1-2 hours in an environment containing 5% CO2. After the incubation the dye is emptied from the plates, and the cells are washed once with Krebs-Ringer HEPES (KRH) buffer (25 mM HEPES, 5 mM KCl, 0.96 mM NaH2PO4, 1 MM MgSO4, 2 mM CaCl2, 5 mM glucose, 1 mM probenecid, pH 7.4), and resuspended in KRH buffer.
Agonist (e.g., olvanil, capsaicin, or RTX)-induced calcium mobilization is monitored using either FLUOROSKAN ASCENT (Labsystems, Franklin, Mass.) or FLIPR (fluorometric imaging plate reader system, Molecular Devices, Sunnyvale, Calif.) instruments. Similarly, varying concentrations of the antagonists ruthenium red or capsazepine are added to cells concurrently with agonist (e.g., 25-50 nM capsaicin). For agonist-induced calcium responses, data obtained between 30 and 60 seconds after agonist application are used to generate the EC50 values. […] software (Synergy Software, Reading, Pa.) was utilized to fit the data to the equation: […]
to determine the EC50 for the response. In this equation, y is the maximum fluorescence signal, x is the concentration of the agonist or antagonist, a is the Emax, b corresponds to the EC50 or IC50 value, and finally, c is the Hill coefficient.
Assay for Determination of Capsaicin Receptor Antagonist Effects
In order to measure the ability of a test compound to antagonize (inhibit) the response of cells expressing capsaicin receptors to capsaicin or other vanilloid agonist, the EC50 of capsaicin is first determined.
An additional 20 ul of KRH buffer and 1 ul DMSO is added to each well of cells, prepared as described above. 100 ul capsaicin in KRH buffer is automatically transferred by the FLIPR instrument to each well.
Test compounds are dissolved in DMSO, diluted in 20 ul KRH buffer so that the final concentration of test compounds in the assay well is between 1 uM and 5 uM, and added to cells prepared as described above. The 96 well plates containing prepared cells and test compounds are incubated in the dark, at room temperature for 0.5-6 hours. It is important that the incubation not continue beyond 6 hours. Just prior to determining the fluorescence response, 100 ul capsaicin in KRH buffer at twice the EC50 concentration determined from the concentration response curve is automatically added by the FLIPR instrument to each well of the 96 well plate for a final sample volume of 200 ul and a final capsaicin concentration equal to the EC50. The final concentration of test compounds in the assay wells is between 1 uM and 5 uM. […] Antagonists of the capsaicin receptor decrease this response by about 20%, preferably by about 50%, and most preferably by at least 80% as compared to matched control. The concentration of antagonist required to provide a 50% decrease is the EC50 for the antagonist (also referred to as the IC50).

T1 sequence (Q8NER1 whole entry): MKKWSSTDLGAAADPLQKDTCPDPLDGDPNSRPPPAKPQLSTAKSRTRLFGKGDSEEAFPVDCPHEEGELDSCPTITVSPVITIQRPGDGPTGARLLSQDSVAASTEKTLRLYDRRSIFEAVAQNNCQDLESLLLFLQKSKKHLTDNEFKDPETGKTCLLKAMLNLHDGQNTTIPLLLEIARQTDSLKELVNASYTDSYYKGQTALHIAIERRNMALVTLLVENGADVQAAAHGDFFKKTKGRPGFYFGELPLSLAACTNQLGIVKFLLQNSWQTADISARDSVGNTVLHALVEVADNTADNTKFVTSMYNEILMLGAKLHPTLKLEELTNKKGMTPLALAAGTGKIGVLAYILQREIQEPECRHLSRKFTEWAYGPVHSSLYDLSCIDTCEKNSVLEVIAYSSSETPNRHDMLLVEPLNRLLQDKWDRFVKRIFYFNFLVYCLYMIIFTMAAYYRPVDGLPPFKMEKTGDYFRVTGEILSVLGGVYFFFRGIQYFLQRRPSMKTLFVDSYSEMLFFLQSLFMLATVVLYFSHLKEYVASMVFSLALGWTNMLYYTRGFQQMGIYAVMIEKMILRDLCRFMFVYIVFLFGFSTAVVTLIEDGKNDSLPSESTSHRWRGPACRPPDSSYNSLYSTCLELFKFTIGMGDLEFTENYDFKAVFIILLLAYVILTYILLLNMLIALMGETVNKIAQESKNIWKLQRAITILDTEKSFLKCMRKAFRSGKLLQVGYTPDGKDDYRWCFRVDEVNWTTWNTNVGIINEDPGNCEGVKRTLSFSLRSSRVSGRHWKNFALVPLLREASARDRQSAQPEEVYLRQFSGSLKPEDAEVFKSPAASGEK

SMILES | IC50 (Table III) [nM] | IC50 (Table V) [nM] | further results
CC(C)C1CN(c2ncccc2Cl)CCN1C(=O)Nc1ccc(C(C)(C)C)cc1 (stereo not drawn) [Compound 69, N-(4-tert-butylphenyl)-4-(3-chloropyridin-2-yl)-2-isopropylpiperazine-1-carboxamide] | < 1000 |  | 
CC(C)C1CN(c2ncccc2C(F)(F)F)CCN1C(=O)Nc1ccc(C(C)(C)C)cc1 (stereo not drawn) [Compound 72, N-(4-tert-butylphenyl)-2-isopropylk-4-[3-(trifluoromethyl)pyridin-2-yl]piperazine-1-carboxamide] | < 1000 |  | 
CC(C)C1CN(c2ncccc2C(F)(F)F)CCN1C(=O)Nc1ccc(C(F)(F)F)cc1 (stereo not drawn) [Compound 73, 2-isopropyl-N-[4-(trifluoromethyl)phenyl]-4-[3-(trifluoromethyl)pyridin-2-yl]piperazine-1-carboxamide] | < 1000 |  | 
CC(C)c1ccc(NC(=O)N2CCN(c3ncccc3C(F)(F)F)CC2C(C)C)cc1 (stereo not drawn) [Compound 74, 2-isopropyl-N-(4-isopropylphenyl)-4-[3-(trifluoromethyl)pyridin-2-yl]piperazine-1-carboxamide] | < 1000 |  | 
C[C@@H]1CN(c2ncccc2F)CCN1C(=O)Nc1ccc(C(F)(F)F)cc1 [Compound 75, (2R)-4-(3-fluoropyridin-2-yl)-2-methyl-N-[4-(trifluoromethyl)phenyl]piperazine-1-carboxamide] | < 1000 |  | 
CC(C)c1ccc(NC(=O)N2CCN(c3ncccc3F)C[C@H]2C)cc1 [Compound 77, (2R)-4-(3-fluoropyridin-2-yl)-N-(4-isopropylphenyl)-2-methylpiperazine-1-carboxamide] | < 1000 |  | 
C[C@@H]1CN(c2ncccc2F)CCN1C(=O)Nc1ccc(C2CCCCC2)cc1 [Compound 78, (2R)-N-(4-cyclohexylphenyl)-4-(3-fluoropyridin-2-yl)-2-methylpiperazine-1-carboxamide] | < 1000 |  | 
C[C@@H]1CN(c2ncccc2F)CCN1C(=O)Nc1ccc(C2CCCC2)cc1 [Compound 79, (2R)-N-(4-cyclopentylphenyl)-4-(3-fluoropyridin-2-yl)-2-methylpiperazine-1-carboxamide] | < 1000 |  | 
C[C@@H]1CN(c2ncccc2C#N)CCN1C(=O)Nc1ccc(C(C)(C)C)cc1 [Compound 82, (2R)-N-(4-tert-butylphenyl)-4-(3-cyanopyridin-2-yl)-2-methylpiperazine-1-carboxamide] | < 1000 |  | 
C[C@@H]1CN(c2ncccc2C#N)CCN1C(=O)Nc1ccc(C(F)(F)F)cc1 [Compound 83, (2R)-4-(3-cyanopyridin-2-yl)-2-methyl-N-[4-(trifluoromethyl)phenyl]piperazine-1-carboxamide] | < 1000 |  | 
Cc1cccc(N2CCN(C(=O)Nc3ccc(C(C)(C)C)cc3)[C@H](C)C2)n1 [Compound 86, (2R)-N-(4-tert-butylphenyl)-2-methyl-4-(6-methylpyridin-2-yl)piperazine-1-carboxamide] | < 1000 |  | 
O=C(Nc1ccc(C(F)(F)F)cn1)N1CCN(c2ncccc2Cl)CC1 [Compound 93, 4-(3-chloropyridin-2-yl)-N[5-(trifluoromethyl)pyridin-2-yl]piperazine-1-carboxamide] |  |  | IC50 (Table IV): < 1000 nM
C[C@@H]1CN(c2ncccc2Cl)CCN1C(=O)Nc1ccc(C(F)(F)F)cn1 [Compound 94, (2R)-4-(3-chloropyridin-2-yl)-2-methyl-N-[5-(trifluoromethyl)pyridin-2-yl]piperazine-1-carboxamide] |  |  | IC50 (Table IV): < 1000 nM
C[C@@H]1CN(c2nccnc2Cl)CCN1C(=O)Nc1ccc(C(C)(C)C)cc1 [Compound 95, (2R)-N-(4-tert-butylpghenyl)-4-(3-chloropyrazin-2-yl)-2-methylpiperazine-1-carboxamide] |  |  | IC50 (Table IV): < 1000 nM
CC(C)c1ccc(NC(=O)N2CCN(c3nccnc3Cl)C[C@H]2C)cc1 [Compound 96, (2R)-4-(3-chloropyrazin-2-yl)-N-(4-isopropylphenyl)-2-methylpiperazine-1-carboxamide] |  |  | IC50 (Table IV): < 1000 nM
C[C@@H]1CN(c2ncccc2Cl)CCN1C(=O)Nc1ccc(C(F)(F)F)nc1 [Compound 98, (2R)-4-(3-chloropyridin-2-yl)-2-methyl-N-[6-(trifluoromethyl)pyridin-3-yl]piperazine-1-carboxamide] |  |  | IC50 (Table IV): < 1000 nM
C[C@@H]1CN(c2ncccc2Cl)CCN1C(=O)NC1CCC(C(C)(C)C)CC1 (stereo partly drawn) [Compound 99, (2R)-N-(4-tert-butylcyclohexyl)-4-(3-chloropyridin-2-yl)-2-methylpiperazine-1-carboxamide] |  |  | IC50 (Table IV): < 1000 nM
CC(C)C1CCC(NC(=O)N2CCN(c3ncccc3Cl)C[C@H]2C)CC1 (stereo partly drawn) [Compound 100, (2R)-4-(3-chloropyridin-2-yl)-N-(4-isopropylcyclohexyl)-2-methylpiperazine-1-carboxamide] |  |  | IC50 (Table IV): < 1000 nM
CC(C)C1CCC(NC(=O)N2CCN(c3ncccc3C(F)(F)F)C[C@H]2C)CC1 (stereo partly drawn) [Compound 101, (2R)-N-(4-isopropylcyclohexyl)-2-methyl-4-[3-(trifluoromethyl)pyridin-2-yl]piperazine-1-carboxamide] |  |  | IC50 (Table IV): < 1000 nM
O=C(Nc1ccc(Cl)cc1)N1CCN(c2cc(C(F)(F)F)ccn2)CC1 [Compound 107, N-(4-chlorophenyl)-4-[4-(trifluoromethyl)pyridin-2-yl]piperazine-1-carboxamide] |  | < 1000 | 
O=C(Nc1ccc(OC(F)(F)F)cc1)N1CCN(c2cc(C(F)(F)F)ccn2)CC1 [Compound 108, N-[4-*trifluoromethoxy)phenyl]-4-[4-(trifluoromethyl)pyririn-2-yl]piperazine-1-carboxamide] |  | < 1000 | 
O=C(Nc1cccc(Cl)c1)N1CCN(c2cc(C(F)(F)F)ccn2)CC1 [Compound 109, N-(3-chlorophenyl)-4-[4-(trifluoromethyl)pyridin-2-yl]piperazine-1-carboxamide] |  | < 1000 | 
O=C(Nc1cccc(C(F)(F)F)c1)N1CCN(c2ncccc2C(F)(F)F)CC1 [Compound 110, N-[3-(trifluoromethyl)phenyl]-4-[3-(trifluoromethyl)pyridin-2-yl]piperazine-1-carboxamide] |  | < 1000 | 
COc1cccc(NC(=O)N2CCN(c3ncccc3C(F)(F)F)CC2)c1 [Compound 113, N-(3-methoxyphenyl)-4-[3-(trifluoromethyl)pyridin-2-yl]piperazine-1-carboxamide] |  | < 1000 | 
O=C(Nc1cccc([N+](=O)[O-])c1)N1CCN(c2ncccc2C(F)(F)F)CC1 [Compound 116, N-(3-nitrophenyl)-4-[3-(trifluoromethyl)pyridin-2-yl]piperazine-1-carboxamide] |  | < 1000 | 
O=C(Nc1ccc(OC(F)(F)F)cc1)N1CCN(c2ncccc2C(F)(F)F)CC1 [Compound 117, N-[4-(trifluoromethoxy)phenyl]-4-[3-(trifluoromethyl)pyridin-2-yl]piperazine-1-carboxamide] |  | < 1000 | 
O=C(Nc1ccc(Cl)c([N+](=O)[O-])c1)N1CCN(c2ncccc2C(F)(F)F)CC1 [Compound 118, N-(4-chloro-3-nitrophenyl)-4-[3-(trifluoromethyl)pyridin-2-yl]piperazine-1-carboxamide] |  | < 1000 | 
O=C(Nc1cc(Cl)cc(Cl)c1)N1CCN(c2ncccc2C(F)(F)F)CC1 [Compound 119, N-(3,5-dichlorophenyl)-4-[3-(trifluoromethyl)pyridin-2-yl]piperazine-1-carboxamide] |  | < 1000 | 
C[C@@H]1CN(c2ncccc2Cl)CCN1C(=O)Nc1ccc(C(C#N)c2ccccc2)cc1 (stereo partly drawn) [Compound 120, (2R)-4-(3-chloropyridin-2-yl)-N-[4-[cyano(phenyl)methyl]phenyl]-2-methylpiperazine-1-carboxamide] |  | < 1000 | 
Cc1cc(NC(=O)N2CCN(c3ncccc3Cl)C[C@H]2C)ccc1C(F)(F)F [Compound 121, (2R)-4-(3-chloropyridin-2-yl)-2-methyl-N-[3-methyl-4-(trifluoromethyl)phenyl]piperazine-1-carboxamide] |  | < 1000 | 
